Assay results as given in ChEMBL document CHEMBL1201862, “PubChem BioAssay data set” (2004).
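Values below derive from 48-hour exposures of cells grown in 96-well plates, with endpoints linearly interpolated between the two concentrations bracketing the appropriate inhibition level. The concentration for 50% growth inhibition is given as GI50.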 Activity calls are given as the source filed them. Rule as the data show it: active = GI50 up to about 1.1 µM and inactive = higher.

Columns and labels:
Assay in all cases: NCI anticancer screen, dose series, 48 h
[1] = tested on: DLD-1
[2] = tested on: DMS-114
[3] = tested on: HCC 2998
[4] = tested on: HOP-18
[5] = tested on: LXFL 529
[6] = tested on: Malme-3M
[7] = tested on: SF-268
[8] = tested on: SNB-19
[9] = tested on: SW-620
[10] = tested on: TK-10
[11] = tested on: A549
[12] = tested on: K562
[13] = tested on: OVCAR-3
[14] = tested on: SF-539
[15] = tested on: 786-0
[16] = tested on: BT-549
[17] = tested on: DU-145
[18] = tested on: Hs-578T
[19] = tested on: MDA-N
[20] = tested on: PC-3

Cn1ccnc1C(O)(c1nccn1C)c1nccn1C
GI50 [1]: > 100 µM (inactive)
GI50 [2]: > 100 µM (inactive)
GI50 [3]: > 100 µM (inactive)
GI50 [4]: 14.1 µM (inactive)
GI50 [5]: > 100 µM (inactive)
GI50 [6]: > 100 µM (inactive)
GI50 [7]: > 100 µM (inactive)
GI50 [8]: > 100 µM (inactive)
GI50 [9]: > 100 µM (inactive)
GI50 [10]: > 100 µM (inactive)

COc1cc(C2c3cc4c(cc3OC3(O)COC(=O)C23)OCO4)cc(OC)c1OC (stereo unspecified)
GI50 [11]: 67.5 µM (inactive)
GI50 [1]: 45.9 µM (inactive)
GI50 [2]: 34.7 µM (inactive)
GI50 [3]: 70 µM (inactive)
GI50 [4]: > 100 µM (inactive)
GI50 [12]: 42.3 µM (inactive)
GI50 [5]: 39.8 µM (inactive)
GI50 [6]: 81.1 µM (inactive)
GI50 [13]: 33 µM (inactive)
GI50 [7]: 85.3 µM (inactive)
GI50 [14]: 28.8 µM (inactive)
GI50 [8]: 53.5 µM (inactive)
GI50 [9]: 35 µM (inactive)
GI50 [10]: 51.3 µM (inactive)

COc1ccc(C(=O)Cc2ccc(Cl)cc2)cc1OC
GI50 [11]: > 100 µM (inactive)
GI50 [1]: > 100 µM (inactive)
GI50 [2]: > 100 µM (inactive)
GI50 [3]: > 100 µM (inactive)
GI50 [4]: > 100 µM (inactive)
GI50 [12]: > 100 µM (inactive)
GI50 [5]: > 100 µM (inactive)
GI50 [6]: > 100 µM (inactive)
GI50 [13]: > 100 µM (inactive)
GI50 [7]: > 100 µM (inactive)
GI50 [14]: > 100 µM (inactive)
GI50 [8]: > 100 µM (inactive)
GI50 [9]: > 100 µM (inactive)
GI50 [10]: > 100 µM (inactive)

Cc1cc(Cl)ccc1NC1=NC(=O)C(CC(=O)Nc2cccc(Cl)c2)S1 (stereo unspecified)
GI50 [15]: 46.8 µM (inactive)
GI50 [11]: 20.8 µM (inactive)
GI50 [1]: 21.7 µM (inactive)
GI50 [2]: 12.1 µM (inactive)
GI50 [3]: 63.2 µM (inactive)
GI50 [4]: > 100 µM (inactive)
GI50 [12]: 13.8 µM (inactive)
GI50 [5]: 39.9 µM (inactive)
GI50 [6]: > 100 µM (inactive)
GI50 [13]: 43 µM (inactive)
GI50 [7]: 46.9 µM (inactive)
GI50 [14]: 77.6 µM (inactive)
GI50 [8]: > 100 µM (inactive)
GI50 [9]: 67 µM (inactive)
GI50 [10]: 83.6 µM (inactive)

O=C1C(Cl)=C(c2ccc([N+](=O)[O-])cc2)C(=O)c2c(O)cccc21
GI50 [15]: 3.15 µM (inactive)
GI50 [11]: 3.28 µM (inactive)
GI50 [16]: 1.03 µM (active)
GI50 [1]: 1.16 µM (inactive)
GI50 [2]: 0.202 µM (active)
GI50 [17]: 6.04 µM (inactive)
GI50 [3]: 2.26 µM (inactive)
GI50 [4]: 0.573 µM (active)
GI50 [18]: 1.19 µM (inactive)
GI50 [12]: 1.11 µM (active)
GI50 [5]: 0.273 µM (active)
GI50 [19]: 2.49 µM (inactive)
GI50 [6]: 2.09 µM (inactive)
GI50 [13]: 1.3 µM (inactive)
GI50 [20]: 2.12 µM (inactive)
GI50 [7]: 0.843 µM (active)
GI50 [14]: 0.341 µM (active)
GI50 [8]: 1.45 µM (inactive)
GI50 [9]: 1.96 µM (inactive)
GI50 [10]: 3.14 µM (inactive)

CC(=O)Nc1ccccc1-c1cnc2ccccc2n1
GI50 [15]: > 100 µM (inactive)
GI50 [11]: > 100 µM (inactive)
GI50 [1]: > 100 µM (inactive)
GI50 [2]: > 100 µM (inactive)
GI50 [3]: > 100 µM (inactive)
GI50 [4]: > 100 µM (inactive)
GI50 [12]: > 100 µM (inactive)
GI50 [5]: > 100 µM (inactive)
GI50 [6]: > 100 µM (inactive)
GI50 [13]: > 100 µM (inactive)
GI50 [7]: > 100 µM (inactive)
GI50 [14]: > 100 µM (inactive)
GI50 [8]: > 100 µM (inactive)
GI50 [9]: > 100 µM (inactive)
GI50 [10]: > 100 µM (inactive)

CCCn1cc2c(O)nc(SC)nc2n1
GI50 [11]: > 100 µM (inactive)
GI50 [1]: > 100 µM (inactive)
GI50 [2]: 91.6 µM (inactive)
GI50 [3]: > 100 µM (inactive)
GI50 [4]: 28.8 µM (inactive)
GI50 [12]: > 10 µM (inactive)
GI50 [5]: > 100 µM (inactive)
GI50 [6]: > 100 µM (inactive)
GI50 [7]: 59 µM (inactive)
GI50 [14]: > 100 µM (inactive)
GI50 [8]: > 100 µM (inactive)
GI50 [9]: > 100 µM (inactive)
GI50 [10]: > 100 µM (inactive)
